Measurements published in patent US6599525B2, “Dressings and bandages comprising same” (Johnson & Johnson Consumer Companies, Inc., priority 1998, dated 2003).

Experiments:
Test in all cases: Microbiocidal activity of bandage samples on inoculated agar
Assay type in all cases: cell-based
Conditions in all cases: benzalkonium chloride in the dressing and bandage of the invention
[1] = system: Escherichia coli
Description: (§1) The purpose of this test was to determine whether the efficacy of the benzalkonium chloride contained within the absorbent substrate of a bandage of the invention would be adversely affected when a portion of the skin-facing surface of the absorbent substrate contained a discontinuous coating of an ointment-like composition. The specimens tested were the bandages of Example 4 comprising the dressing of Example 2. Test samples 2.5 cm×2 cm were cut from the bandages so as to remove the longitudinally extending adhesive strip portions that extended beyond the boundary of the dressing portion of the bandage.
(§2) The microbiocidal activity of the benzalkonium chloride in the dressing was tested by placing samples of the dressing on a peptone-casein-soya agar growth medium contained in petri dishes having an area of 64 square centimeters that had been inoculated with certain microorganisms. The test samples were placed in the dishes so that the skin facing side of the dressing contacted the agar medium. The following microorganisms were used:
(§3) The bactericidal suspensions for seeding of the prepared petri dishes were taken from cultures in their exponential growth phase. The concentration of each suspension was determined according to an AENOR (Association Francaise Normalisation) standard method using spectrophotometry at 620 nm. Suspensions of the desired concentration were then prepared by successive dilution to give seeding stock solutions.
(§4) A standard volume of the seeding stock solution was placed in the center of each prepared petri dish and spread with the help of a spreader. The inoculated plates were dried off in a drying oven at 37° C. for 30 minutes. The dressings were placed on top of the medium in the manner described above, and the petri dishes were then incubated for a total of 24 to 48 hours at 37° C. Dishes were removed from the incubator periodically and the extent of bacterial growth underneath the dressing was measured.

[2] = system: Streptococcus foecalis
Description: as §1, §2, §3, §4

[3] = system: Mycobacterium smegmatis
Description: as §1, §2, §3, §4

[4] = system: Staphylococcus aureus
Description: as §1, §2, §3, §4

Measured: bactericidal activity (summary in words)

benzalkonium chloride
significant bactericidal activity: all assays above
